Laboratory results taken from patent publication US20250243196A1, “CITRON KINASE INHIBITORS” (The Cleveland Clinic Foundation, priority 2021, published 2025).

Key:
Test in all cases: KinaseProfiler panel
Format in all cases: biochemical
Details in all cases: activity remaining
NEK9(h) = NEK9(h) (Homo sapiens (Human), UniProt Q8TD19); set-up: dose or concentration left out as unconfirmed
Rsk3(h) = Rsk3(h) (Homo sapiens (Human), UniProt Q15349); set-up: dose or concentration left out as unconfirmed
PAK2(h) = PAK2(h) (Homo sapiens (Human), UniProt Q13177); set-up: dose or concentration left out as unconfirmed
ChaK1(h) = ChaK1(h) (Homo sapiens (Human), UniProt Q96QT4); set-up: dose or concentration left out as unconfirmed
WNK2(h) = WNK2(h) (Homo sapiens (Human), UniProt Q9Y3S1); set-up: dose or concentration left out as unconfirmed
SIK2(h) = SIK2(h) (Homo sapiens (Human), UniProt Q9H0K1); set-up: dose or concentration left out as unconfirmed
DCAMKL1(h) = DCAMKL1(h) (Homo sapiens (Human), UniProt O15075); set-up: dose or concentration left out as unconfirmed
Ron(h) = Ron(h) (Homo sapiens (Human), UniProt Q04912); set-up: dose or concentration left out as unconfirmed
NLK(h) = NLK(h) (Homo sapiens (Human), UniProt Q9UBE8)
Cdc7/cyclinB1(h) = Cdc7/cyclinB1(h) (Homo sapiens, UniProt O00311); set-up: dose or concentration left out as unconfirmed
CK1ε(h) = CK1ε(h) (Homo sapiens (Human), UniProt P49674); set-up: dose or concentration left out as unconfirmed
GRK6(h) = GRK6(h) (Homo sapiens (Human), UniProt P43250); set-up: dose or concentration left out as unconfirmed
Aurora-C(h) = Aurora-C(h) (Homo sapiens (Human), UniProt Q9UQB9)
MAPKAP-K2(h) = MAPKAP-K2(h) (Homo sapiens (Human), UniProt P49137); set-up: dose or concentration left out as unconfirmed
CK1α(h) = CK1α(h) (Homo sapiens (Human), UniProt P48729); set-up: dose or concentration left out as unconfirmed
EphA2(h) = EphA2(h) (Homo sapiens (Human), UniProt P29317); set-up: dose or concentration left out as unconfirmed
EphB4(h) = EphB4(h) (Homo sapiens (Human), UniProt P54760); set-up: dose or concentration left out as unconfirmed
PKD2(h) = PKD2(h) (Homo sapiens (Human), UniProt Q9BZL6); set-up: dose or concentration left out as unconfirmed
PRKG2(h) = PRKG2(h) (Homo sapiens (Human), UniProt Q13237); set-up: dose or concentration left out as unconfirmed
Plk1(h) = Plk1(h) (Homo sapiens (Human), UniProt P53350); set-up: dose or concentration left out as unconfirmed
DRAK1(h) = DRAK1(h) (Homo sapiens (Human), UniProt Q9UEE5)
IGF-1R(h) = IGF-1R(h) (Homo sapiens (Human), UniProt P08069); set-up: dose or concentration left out as unconfirmed
Tie2 (h) = Tie2 (h) (Homo sapiens (Human), UniProt Q02763); set-up: dose or concentration left out as unconfirmed
MINK(h) = MINK(h) (Homo sapiens (Human), UniProt Q8N4C8); set-up: dose or concentration left out as unconfirmed
A-Raf(h) = A-Raf(h) (Homo sapiens (Human), UniProt P10398); set-up: dose or concentration left out as unconfirmed
GRK3(h) = GRK3(h) (Homo sapiens (Human), UniProt P35626); set-up: dose or concentration left out as unconfirmed
GRK5(h) = GRK5(h) (Homo sapiens (Human), UniProt P34947); set-up: dose or concentration left out as unconfirmed
SGK2(h) = SGK2(h) (Homo sapiens (Human), UniProt Q9HBY8); set-up: dose or concentration left out as unconfirmed
TSSK4(h) = TSSK4(h) (Homo sapiens (Human), UniProt Q6SA08); set-up: dose or concentration left out as unconfirmed
Txk(h) = Txk(h) (Homo sapiens (Human), UniProt P42681); set-up: dose or concentration left out as unconfirmed
Txk(h), sequence (P42681 whole entry): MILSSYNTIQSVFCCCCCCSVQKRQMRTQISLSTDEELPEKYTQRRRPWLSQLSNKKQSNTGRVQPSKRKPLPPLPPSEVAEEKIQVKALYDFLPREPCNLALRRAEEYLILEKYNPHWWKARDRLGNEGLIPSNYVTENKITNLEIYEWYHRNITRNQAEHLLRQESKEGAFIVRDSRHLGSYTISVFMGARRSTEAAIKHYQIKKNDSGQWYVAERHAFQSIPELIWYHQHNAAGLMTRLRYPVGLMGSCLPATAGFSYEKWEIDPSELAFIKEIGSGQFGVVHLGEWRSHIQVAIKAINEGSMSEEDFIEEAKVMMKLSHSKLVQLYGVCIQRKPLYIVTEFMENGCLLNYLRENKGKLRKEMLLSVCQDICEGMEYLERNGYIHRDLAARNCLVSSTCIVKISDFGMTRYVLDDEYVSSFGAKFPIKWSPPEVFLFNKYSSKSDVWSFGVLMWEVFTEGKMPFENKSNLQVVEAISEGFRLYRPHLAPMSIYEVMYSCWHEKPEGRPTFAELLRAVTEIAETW

Plk1(h), sequence (P53350 whole entry): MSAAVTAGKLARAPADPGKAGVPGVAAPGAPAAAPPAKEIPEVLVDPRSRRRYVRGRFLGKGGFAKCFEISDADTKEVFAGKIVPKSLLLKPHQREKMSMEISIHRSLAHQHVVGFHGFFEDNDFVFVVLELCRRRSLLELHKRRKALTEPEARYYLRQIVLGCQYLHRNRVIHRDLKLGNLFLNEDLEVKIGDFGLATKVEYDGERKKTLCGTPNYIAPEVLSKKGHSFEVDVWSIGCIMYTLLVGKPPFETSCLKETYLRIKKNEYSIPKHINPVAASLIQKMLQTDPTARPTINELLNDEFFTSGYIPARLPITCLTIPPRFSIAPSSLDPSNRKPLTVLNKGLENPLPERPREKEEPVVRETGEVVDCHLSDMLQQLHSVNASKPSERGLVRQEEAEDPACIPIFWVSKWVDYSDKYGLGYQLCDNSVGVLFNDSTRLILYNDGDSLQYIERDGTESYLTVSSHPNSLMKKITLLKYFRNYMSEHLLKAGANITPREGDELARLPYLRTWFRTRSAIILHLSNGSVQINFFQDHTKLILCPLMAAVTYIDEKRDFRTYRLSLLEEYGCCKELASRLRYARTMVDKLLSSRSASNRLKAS
A-Raf(h), sequence (P10398 whole entry): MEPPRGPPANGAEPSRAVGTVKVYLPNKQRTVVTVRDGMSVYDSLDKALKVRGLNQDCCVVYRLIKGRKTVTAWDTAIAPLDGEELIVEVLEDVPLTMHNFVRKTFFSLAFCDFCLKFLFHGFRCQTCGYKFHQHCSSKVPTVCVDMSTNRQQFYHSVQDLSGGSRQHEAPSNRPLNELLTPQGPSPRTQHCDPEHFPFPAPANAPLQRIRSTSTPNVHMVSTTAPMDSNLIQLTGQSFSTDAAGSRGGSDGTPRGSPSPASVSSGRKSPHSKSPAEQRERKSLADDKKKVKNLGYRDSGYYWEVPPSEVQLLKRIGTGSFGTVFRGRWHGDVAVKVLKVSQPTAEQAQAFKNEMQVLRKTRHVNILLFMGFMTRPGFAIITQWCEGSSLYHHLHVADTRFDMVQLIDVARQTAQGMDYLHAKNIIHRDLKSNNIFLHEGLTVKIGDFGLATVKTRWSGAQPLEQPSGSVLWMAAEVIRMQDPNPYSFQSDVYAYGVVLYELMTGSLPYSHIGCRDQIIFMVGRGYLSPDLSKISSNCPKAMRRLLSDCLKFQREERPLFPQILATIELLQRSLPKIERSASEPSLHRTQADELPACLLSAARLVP
SGK2(h), sequence (Q9HBY8 whole entry): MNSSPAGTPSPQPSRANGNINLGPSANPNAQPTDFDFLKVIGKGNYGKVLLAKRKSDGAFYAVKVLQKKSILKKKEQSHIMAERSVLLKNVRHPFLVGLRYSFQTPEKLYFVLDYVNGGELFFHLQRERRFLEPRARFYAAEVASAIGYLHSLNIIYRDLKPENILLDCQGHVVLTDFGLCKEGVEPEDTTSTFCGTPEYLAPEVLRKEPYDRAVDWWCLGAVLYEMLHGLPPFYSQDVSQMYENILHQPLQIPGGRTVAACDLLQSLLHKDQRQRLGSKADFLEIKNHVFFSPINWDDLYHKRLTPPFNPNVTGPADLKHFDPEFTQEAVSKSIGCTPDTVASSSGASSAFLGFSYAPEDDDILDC
EphA2(h), sequence (P29317 24-976): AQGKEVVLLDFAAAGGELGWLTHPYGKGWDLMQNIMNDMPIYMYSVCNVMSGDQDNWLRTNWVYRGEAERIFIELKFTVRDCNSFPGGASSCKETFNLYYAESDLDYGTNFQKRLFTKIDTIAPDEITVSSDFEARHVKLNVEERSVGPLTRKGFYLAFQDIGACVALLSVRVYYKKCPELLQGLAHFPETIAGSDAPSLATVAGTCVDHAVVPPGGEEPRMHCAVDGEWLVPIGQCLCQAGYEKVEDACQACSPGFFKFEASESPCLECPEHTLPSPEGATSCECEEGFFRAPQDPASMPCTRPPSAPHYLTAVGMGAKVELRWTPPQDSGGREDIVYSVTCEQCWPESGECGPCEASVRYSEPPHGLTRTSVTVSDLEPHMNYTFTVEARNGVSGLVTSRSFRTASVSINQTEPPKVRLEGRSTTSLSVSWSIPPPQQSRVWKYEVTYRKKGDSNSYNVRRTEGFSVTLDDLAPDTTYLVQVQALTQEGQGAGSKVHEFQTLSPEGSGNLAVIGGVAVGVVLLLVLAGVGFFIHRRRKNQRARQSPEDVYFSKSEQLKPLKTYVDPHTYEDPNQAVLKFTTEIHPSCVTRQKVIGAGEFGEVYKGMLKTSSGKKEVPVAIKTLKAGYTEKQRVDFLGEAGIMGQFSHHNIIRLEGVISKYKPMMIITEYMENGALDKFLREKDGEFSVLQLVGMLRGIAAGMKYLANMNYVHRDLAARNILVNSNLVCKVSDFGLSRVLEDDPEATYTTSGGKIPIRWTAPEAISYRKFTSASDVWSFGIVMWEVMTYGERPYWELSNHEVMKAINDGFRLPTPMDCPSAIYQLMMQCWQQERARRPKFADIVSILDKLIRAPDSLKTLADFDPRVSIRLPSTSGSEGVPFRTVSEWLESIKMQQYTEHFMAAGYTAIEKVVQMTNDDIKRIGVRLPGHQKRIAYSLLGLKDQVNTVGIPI
Rsk3(h), sequence (Q15349 whole entry): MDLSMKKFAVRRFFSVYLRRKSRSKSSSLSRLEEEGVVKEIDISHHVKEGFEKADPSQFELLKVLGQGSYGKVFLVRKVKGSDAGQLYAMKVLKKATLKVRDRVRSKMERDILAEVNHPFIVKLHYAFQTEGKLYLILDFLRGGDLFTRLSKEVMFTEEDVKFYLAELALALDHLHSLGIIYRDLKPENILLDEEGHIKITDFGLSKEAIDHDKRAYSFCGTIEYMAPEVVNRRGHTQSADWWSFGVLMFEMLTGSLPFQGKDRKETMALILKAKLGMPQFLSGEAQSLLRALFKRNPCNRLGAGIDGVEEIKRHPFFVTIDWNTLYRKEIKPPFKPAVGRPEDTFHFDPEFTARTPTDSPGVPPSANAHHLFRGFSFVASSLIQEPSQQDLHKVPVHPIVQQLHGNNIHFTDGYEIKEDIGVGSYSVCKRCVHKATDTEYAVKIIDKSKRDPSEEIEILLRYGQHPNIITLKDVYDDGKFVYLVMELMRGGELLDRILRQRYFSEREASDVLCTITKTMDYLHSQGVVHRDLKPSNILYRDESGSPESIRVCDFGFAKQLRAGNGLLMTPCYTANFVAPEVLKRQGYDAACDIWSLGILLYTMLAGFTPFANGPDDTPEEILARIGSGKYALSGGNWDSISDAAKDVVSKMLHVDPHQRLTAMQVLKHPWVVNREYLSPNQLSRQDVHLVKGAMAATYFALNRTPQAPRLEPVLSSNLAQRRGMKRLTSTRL
DCAMKL1(h), sequence (O15075 whole entry, looked up): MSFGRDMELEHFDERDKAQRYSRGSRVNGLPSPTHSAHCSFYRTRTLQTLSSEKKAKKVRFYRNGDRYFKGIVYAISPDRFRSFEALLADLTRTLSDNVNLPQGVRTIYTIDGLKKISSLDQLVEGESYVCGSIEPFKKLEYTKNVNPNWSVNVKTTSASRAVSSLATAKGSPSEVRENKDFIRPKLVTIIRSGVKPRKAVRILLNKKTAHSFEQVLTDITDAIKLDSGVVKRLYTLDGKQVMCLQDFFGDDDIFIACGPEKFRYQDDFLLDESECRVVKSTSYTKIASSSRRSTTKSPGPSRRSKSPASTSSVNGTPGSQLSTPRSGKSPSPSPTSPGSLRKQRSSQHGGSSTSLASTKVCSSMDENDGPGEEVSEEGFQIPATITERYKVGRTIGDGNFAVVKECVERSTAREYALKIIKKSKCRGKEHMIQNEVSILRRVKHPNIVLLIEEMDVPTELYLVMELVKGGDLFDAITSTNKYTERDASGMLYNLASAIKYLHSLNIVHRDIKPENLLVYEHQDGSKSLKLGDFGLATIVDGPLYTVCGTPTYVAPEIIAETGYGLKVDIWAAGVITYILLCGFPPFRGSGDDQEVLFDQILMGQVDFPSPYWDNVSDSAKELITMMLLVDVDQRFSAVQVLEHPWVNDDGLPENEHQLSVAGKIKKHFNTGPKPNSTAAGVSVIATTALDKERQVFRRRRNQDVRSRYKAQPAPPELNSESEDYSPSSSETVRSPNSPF
TSSK4(h), sequence (Q6SA08 whole entry): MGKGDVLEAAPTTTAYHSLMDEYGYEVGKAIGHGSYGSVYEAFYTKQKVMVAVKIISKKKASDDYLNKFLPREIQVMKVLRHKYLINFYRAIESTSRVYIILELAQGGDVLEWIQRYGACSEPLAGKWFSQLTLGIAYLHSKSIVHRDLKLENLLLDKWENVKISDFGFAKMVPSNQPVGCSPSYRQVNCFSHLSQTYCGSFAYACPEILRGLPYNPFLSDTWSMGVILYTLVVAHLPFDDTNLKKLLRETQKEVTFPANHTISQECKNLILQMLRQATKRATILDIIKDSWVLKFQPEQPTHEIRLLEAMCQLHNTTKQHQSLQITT

Cc1cc2c(-c3ccc(NC(=O)[C@H](N)CC(C)(C)C)cc3C)ccnc2[nH]1 [Compound F-90, (2R)-2-Amino-4,4-dimethyl-N-[3-methyl-4-(2-methyl-1H-pyrrolo[2,3-b]pyridin-4-yl)phenyl]pentanamide]
% Activity (NEK9(h)): 79% | % Activity (Rsk3(h)): 112% | % Activity (PAK2(h)): 95% | % Activity (ChaK1(h)): 106% | % Activity (WNK2(h)): 94% | % Activity (SIK2(h)): 109% | % Activity (DCAMKL1(h)): 95% | % Activity (Ron(h)): 111% | % Activity (NLK(h)): 98% | % Activity (Cdc7/cyclinB1(h)): 75% | % Activity (CK1ε(h)): 96% | % Activity (GRK6(h)): 95% | % Activity (Aurora-C(h)): 94% | % Activity (MAPKAP-K2(h)): 72% | % Activity (CK1α(h)): 97% | % Activity (EphA2(h)): 95% | % Activity (EphB4(h)): 107% | % Activity (PKD2(h)): 95% | % Activity (PRKG2(h)): 110% | % Activity (Plk1(h)): 111% | % Activity (DRAK1(h)): 80% | % Activity (IGF-1R(h)): 98% | % Activity (Tie2 (h)): 99% | % Activity (MINK(h)): 89% | % Activity (A-Raf(h)): 97% | % Activity (GRK3(h)): 81% | % Activity (GRK5(h)): 97% | % Activity (SGK2(h)): 82% | % Activity (TSSK4(h)): 117% | % Activity (Txk(h)): 110%
